Tests used:
Format in all cases: cell-based, human
JEG-3 cells [1] = assay: CellTiter-Glo luminescent cell viability assay (HTTS); conditions: for Viability ↓, lowest concentration at which the mean response value exceeded the mean control value ± 2*SD (rough binning) / Viability ↑, lowest concentration at which the mean response value exceeded the mean control value ± 2*SD (rough binning): 24 h; for Viability ↓, lowest concentration at which the mean response value exceeded the mean control value ± 2*SD (rough binning): decrease; for cell viability relative to vehicle control (rough binning): after 24 h, in at least one concentration; for Viability ↑, lowest concentration at which the mean response value exceeded the mean control value ± 2*SD (rough binning): increase
Source text: (§1) JEG-3 human choriocarcinoma trophoblastic cells (American Type Culture Collection, VA, United States) were maintained in sterile-filtered Minimum Essential Media (MEM) supplemented with L-glutamine and phenol red (Thermo Fisher Scientific, MA, United States), 10% (v/v) heat-inactivated BenchMark Fetal Bovine Serum (Gemini Bio, CA, United States), 1% (v/v) sodium pyruvate (Thermo Fisher Scientific, MA, United States), and 1% (v/v) penicillin streptomycin (Sigma Aldrich, MO, United States). Cells were maintained in an incubator at 37°C with 5% CO2. JEG-3 cells were cultured in 10 cm tissue culture plates and cell passage numbers were recorded.
(§2) A total of 42 perfluoroalkyl substances (PFAS) were evaluated (Supplementary Table S1 contains source and purity). PFAS stock solutions were maintained in 100% methanol as previous work has shown certain PFAS degrade when stored in dimethyl sulfoxide (DMSO; [Gaballah et al., 2020]). […] The vehicle control group consisted of 97.5% media + 2.5% methanol to match the concentration of methanol in the media at the highest PFAS concentration tested (500 µM). Menadione (50–500 µM) was used as a positive control for cytotoxicity assessment. PFAS were de-identified and assigned random numbers to eliminate bias. Chemical exposure plate maps were designed so that all experimental conditions were tested in at least technical duplicates per plate. The outer edges of each plate received media alone and were excluded from all analyses to avoid edge effects. Each plate map included 14 technical replicates of the vehicle control group and 14 technical replicates of media only. Biological replicates were defined as separate 384 well plates tested on separate days using different cell passages. The experimental workflow is depicted in Supplementary Figure S1.
(§3) JEG-3 cells were counted using a Z2 Coulter Particle Counter (Beckman Coulter, CA, United States) and seeded at a density of 2,500 cells per well in black-walled, clear bottom 384 well plates (Corning, #3764) and allowed to adhere overnight. Approximately 24 h later, 384 well plates were imaged using an IncuCyte Zoom live cell imager (Essen BioScience Inc., MI, United States) to obtain baseline cellular confluence measurements prior to chemical dosing (0 h). Media was removed from wells and replaced with fresh media containing chemical treatments (exposure media) using a Viaflo liquid handling device (Integra Biosciences, NH, United States). Within 30 min of exposure media application, plates were again imaged for cellular confluence using the IncuCyte Zoom. Plates were incubated with exposure media for 24 h and then imaged again using the IncuCyte Zoom (24 h).
In the same plate evaluated for mitochondrial membrane potential, cell viability measures were duplexed using the CellTiter-Glo (CTG) Luminescent Cell Viability Assay (Promega, WI, United States). CTG reagent was added to each well at a volume of 20 µl. The plate was left at room temperature to incubate for 5 min and then 20 µl from each well was transferred to a low-volume, round-bottom, white 384 well plate (Corning, NY, United States). The CTG reagent lyses cellular and mitochondrial membranes and binds to adenosine triphosphate (ATP) released by cells, which produces a luminescence signal. The intensity of the luminescence was considered a proxy measure for the number of live cells in a well. The luminescence intensities were measured using the CLARIOstar plate reader.
HTTS data were analyzed using a custom data analysis script in R v 1.2.5019 ([R Core Team, 2019]). Briefly, raw data points corresponding to the confluence measurements at 0 and 24 h, the fluorescence intensities corresponding to MMP, and the relative luminescence units (RLU) corresponding to cell viability were imported directly from Microsoft Excel into the R programming environment, RStudio. Separate plates run on separate days using different JEG-3 passages were considered as biologic replicates. […]

JEG-3 cells [2] = assay: Proliferation, change in confluence 0-24 h (IncuCyte Zoom, HTTS); conditions: for minimal effective concentration: read-out: Prolif ↓, lowest concentration at which the mean response value exceeded the mean control value ± 2*SD (rough binning); for cellular proliferation relative to vehicle control (rough binning): after 24 h, in at least one concentration
Source text: as §1, §2, §3
Plate well bottom images were evaluated using automated cell masking. The automated cell masking program was developed using IncuCyte Zoom base software. Cell masking parameters were defined using a training set of JEG-3 cell images obtained prior to conducting the experiments and following IncuCyte Zoom software recommendations. Briefly, the training images were obtained from cell culture plates with varying levels of JEG-3 cellular confluence (ranging from ∼15% confluent to ∼95% confluent). Parameters for the automated cell masking were first manually set by an experimenter for 3-6 images of low (∼15–30%), medium (∼30–70%), and high confluence (∼70% or greater). The training images were then evaluated by the automated masking program and manually checked to ensure the parameters were sufficiently strict to ignore background (e.g., blank space on the plate well bottom) but adequately sensitive to detect cell borders. The masking program was then implemented on the experimental plates to obtain a baseline cellular confluence measurement at 0 h and a second confluence measurement at 24 h. […]

JEG-3 cells [3] = assay: Mitochondrial membrane potential, JC-10 assay (HTTS); conditions: for minimal effective concentration: read-out: MMP ↓, lowest concentration at which the mean response value exceeded the mean control value ± 2*SD (rough binning); for MMP relative to vehicle control (rough binning): after 24 h, in at least one concentration; for MMP ↓, lowest concentration at which the mean response value exceeded the mean control value ± 2*SD (rough binning): 24 h, decrease
Source text: as §1, §2, §3
The JC-10 assay (Enzo Life Sciences, NY, United States) was used to evaluate mitochondrial membrane potential, the main bioenergetic parameter that regulates respiratory rate, ATP synthesis and reactive oxygen species generation. In cells with polarized mitochondrial membranes, the JC-10 dye localizes to the mitochondrial matrix and forms red fluorescent aggregates (540/590 nm). In cells with depolarized mitochondrial membranes, the JC-10 dye localizes in the cytoplasm and converts to a green fluorescent monomer (490/525 nm). Mitochondrial membrane potential was calculated as the ratio of the green and red fluorescence intensities within a well.
At the end of the 24 h exposure period, exposure media was removed from the plate. The plate wells were then washed with 1x phosphate buffered saline (1x PBS). After washing, the JC-10 reagent was suspended in fresh 1x PBS and 20 µl was added to each well at a final concentration of 20 μM (Enzo Life Sciences, NY, United States). The plate was incubated for 1 h at 37°C, and the fluorescence intensities at excitation/emission wavelengths of 490/525 nm and 540/590 nm were measured using a CLARIOstar (BMG Labtech, Offenburg, Germany) plate reader, respectively.
HTTS data were analyzed using a custom data analysis script in R v 1.2.5019 ([R Core Team, 2019]). […]

[4] = Homo sapiens, JEG-3, 24 h, read-out: Proliferation EC50 ± SD, JEG-3 cells, 24 h exposure, four-parameter fit, estimates meeting inclusion criteria
[5] = Homo sapiens, JEG-3, 24 h, read-out: MMP EC50 ± SD, JEG-3 cells, 24 h exposure, four-parameter fit, estimates meeting inclusion criteria
[6] = JEG-3 cells, 24 h exposure, four-parameter fit, estimates meeting inclusion criteria, read-out: Viability EC50 ± SD
[7] = JEG-3 cells, 24 h exposure, four-parameter fit, estimates meeting inclusion criteria, read-out: Proliferation EC50 ± SD
[8] = Homo sapiens, JEG-3, 24 h, read-out: Viability EC50 ± SD, JEG-3 cells, 24 h exposure, four-parameter fit, estimates meeting inclusion criteria

| SMILES | Viability ↓, lowest concentration at which the mean response value exceeded the mean control value ± 2*SD (rough binning) (JEG-3 cells [1]; JEG-3 cells) [µM] | cell viability relative to vehicle control (rough binning) (JEG-3 cells [1]) | minimal effective concentration (JEG-3 cells [2]; Homo sapiens, JEG-3, 24 h) [µM] | EC50 (JEG-3 cells [2]; [4]) [µM] | cellular proliferation relative to vehicle control (rough binning) (JEG-3 cells [2]) | EC50 (JEG-3 cells [3]; [5]) [µM] | minimal effective concentration (JEG-3 cells [3]; Homo sapiens, JEG-3, 24 h) [µM] | MMP relative to vehicle control (rough binning) (JEG-3 cells [3]) | EC50 (JEG-3 cells [1]; [6]) [µM] | EC50 (JEG-3 cells [1]; [8]) [µM] | also measured |
| --- | --- | --- | --- | --- | --- | --- | --- | --- | --- | --- | --- |
| O=C(O)C(F)(F)OC(F)(F)C(F)(F)OC(F)(F)C(F)(F)C(F)(F)C(F)(F)F [Perfluoro-3,6-dioxadecanoic acid] | 400 | reduced cell viability | 300 | 283 ± 25.7 | reduced cellular proliferation | 350 ± 16.1 | 400 | reduced MMP |  |  |  |
| O=C(O)C(F)(F)C(F)(F)C(F)(F)F [Perfluorobutanoic acid] |  | increased cell viability |  |  |  |  |  | reduced MMP | 226 ± 116 |  | Viability ↑, lowest concentration at which the mean response value exceeded the mean control value ± 2*SD (rough binning) (JEG-3 cells [1]; JEG-3 cells): 50 µM; EC50 (JEG-3 cells [2]; [7]): 209 ± 360 µM; MMP ↓, lowest concentration at which the mean response value exceeded the mean control value ± 2*SD (rough binning) (JEG-3 cells [3]; JEG-3 cells): 50 µM; EC50 (JEG-3 cells [3]; JEG-3 cells, raw model output including fits that did not meet inclusion criteria, read-out: MMP EC50 ± SD (raw values)): 52 µM |
| O=C(O)C(F)(F)OC(F)(F)C(F)(F)OC(F)(F)C(F)(F)OC(F)(F)C(F)(F)C(F)(F)C(F)(F)F [Perfluoro-3,6,9-trioxatridecanoic acid] | 300 | reduced cell viability | 400 | 332 ± 34.1 | reduced cellular proliferation |  | 50 | reduced MMP |  | 195 ± 54.6 |  |
| O=C(O)C(F)(F)OC(F)(F)C(F)(F)OC(F)(F)C(F)(F)OC(F)(F)F [Perfluoro-3,6,9-trioxadecanoic acid] |  |  | 350 | 303 ± 30.1 | reduced cellular proliferation |  | 450 | reduced MMP |  | 267 ± 26.8 |  |
| O=C(O)C(F)(F)C(F)(F)OC(F)(F)F [Perfluoro-3-methoxypropanoic acid] |  |  |  | 204 ± 111 |  | 93.1 ± 132 |  |  |  | 304 ± 28.2 |  |
| O=S(=O)(O)CCC(F)(F)C(F)(F)C(F)(F)C(F)(F)C(F)(F)C(F)(F)C(F)(F)C(F)(F)F [8:2 Fluorotelomer sulfonic acid] |  |  |  | 321 ± 171 |  | 331 ± 5.7 |  |  |  | 160 ± 45.7 | EC50 (JEG-3 cells [1]; Homo sapiens, JEG-3, 24 h, read-out: viability EC50 ± SE, JEG-3 cells, 24 h): 160 ± 46 µM |
| O=S(=O)(O)C(F)(F)C(F)(F)C(F)(F)C(F)(F)F [Perfluorobutanesulfonic acid] |  | increased cell viability |  |  |  |  |  | reduced MMP | 330 ± 35 |  | Viability ↑, lowest concentration at which the mean response value exceeded the mean control value ± 2*SD (rough binning) (JEG-3 cells [1]; JEG-3 cells): 50 µM; EC50 (JEG-3 cells [2]; [7]): 223 ± 76.7 µM; MMP ↓, lowest concentration at which the mean response value exceeded the mean control value ± 2*SD (rough binning) (JEG-3 cells [3]; JEG-3 cells): 50 µM |
| CCN(CC(=O)O)S(=O)(=O)C(F)(F)C(F)(F)C(F)(F)C(F)(F)C(F)(F)C(F)(F)C(F)(F)C(F)(F)F [2-(N-Ethylperfluorooctanesulfonamido)acetic acid] | 250 | reduced cell viability | 250 | 204 ± 17.7 |  |  | 150 | reduced MMP |  | 203 ± 44.7 | EC50 (JEG-3 cells [2]; Homo sapiens, JEG-3, 24 h, read-out: proliferation EC50 ± SE, JEG-3 cells, 24 h): 204 ± 18 µM; Prolif ↑, lowest concentration at which the mean response value exceeded the mean control value ± 2*SD (rough binning) (JEG-3 cells [2]; JEG-3 cells, 24 h, increase): 50 µM |
| O=C(O)C(F)(F)C(F)(F)C(F)(F)C(F)(F)C(F)(F)C(F)(F)C(F)(F)C(F)F [9-H-Perfluorononanoic acid] |  |  |  |  |  |  |  |  | 350 ± 43.1 |  | EC50 (JEG-3 cells [2]; JEG-3 cells, raw model output including fits that did not meet inclusion criteria, read-out: Proliferation EC50 ± SD (raw values)): 1230 ± 118 µM; EC50 (JEG-3 cells [3]; JEG-3 cells, 24 h exposure, four-parameter fit, estimates meeting inclusion criteria, read-out: MMP EC50 ± SD): 187 ± 27.6 µM |
